In paper PMC11410929, “Biochemical and crystallographic studies of L,D-transpeptidase 2 from Mycobacterium tuberculosis with its natural monomer substrate” (Communications Biology, 2024):

System: LdtMt2^C354S
Type: biochemical, Mycobacterium tuberculosis

GlcNAc-MurNAc-L-Ala-D-iGluNH2-m-DAPNH2-D-Ala-D-Ala [Compound 4]
Product formation with LdtMt2^C354S: no product formation was observed
